From patent US12227509B2, “Dihydropyrazolopyrazinone derivative having MGAT2 inhibitory activity” (Shionogi & Co., Ltd., priority 2019, dated 2025)
≈ marks a conversion by molar mass, not a printed value.

What was measured:
[1] = Metabolism stability test (human liver microsomes); type: in vitro ADME; conditions: compound concentration 0.5 μmol/L, 37° C., 30 minutes, NADPH
[2] = Solubility test (1% DMSO addition, pH 6.8 artificial intestinal juice); type: physicochemical; conditions: kinetic from dmso stock, 16 hours at 25° C.
CYP1A2 = CYP1A2 (Homo sapiens (Human), UniProt P05177); assay: CYP inhibition test, CYP1A2; type: in vitro ADME; conditions: pooled human liver microsomes; 7-ethoxyresorufin O-deethylation; given as 'five kinds'
Source text: (§1) Using commercially available pooled human hepatic microsome, and employing, as markers, 7-ethoxyresorufin O-deethylation (CYP1A2), tolbutamide methyl-hydroxylation (CYP2C9), mephenytoin 4'-hydroxylation (CYP2C19), dextromethorphan 0-demethylation (CYP2D6), and terfenadine hydroxylation (CYP3A4) as typical substrate metabolism reactions of human main five CYP enzyme forms (CYP1A2, 2C9, 2C19, 2D6, 3A4), an inhibitory degree of each metabolite production amount by the compound of the present invention was assessed. The reaction conditions are as follows: substrate, 0.5 μmol/L ethoxyresorufin (CYP1A2), 100 μmol/L tolbutamide (CYP2C9), 50 μmol/L S-mephenitoin (CYP2C19), 5 μmol/L dextromethorphan (CYP2D6), 1 μmol/L terfenedine (CYP3A4); reaction time, 15 minutes; reaction temperature, 37° C.; enzyme, pooled human liver microsomes 0.2 mg protein/mL; concentrations of the compound of the present invention, 1, 5, 10, 20 μmol/L (four points). As a reaction solution, each five kinds of substrates, human liver microsomes, or compound of the present invention in 50 mmol/L Hepes buffer were added to a 96-well plate at the composition as described above, and NADPH, as a cofactor was added to initiate metabolism reactions. After the incubation at 37° C. for 15 minutes, a methanol/acetonitrile=1/[…]) solution was added to stop the reaction. After the centrifugation at 3000 rpm for 15 minutes, resorufin (CYP1A2 metabolite) in the supernatant was quantified by a fluorescent multilabel counter or LC/MS/MS, and tolbutamide hydroxide (CYP2C9 metabolite), mephenytoin 4' hydroxide (CYP2C19 metabolite), dextrorphan (CYP2D6 metabolite), and terfenadine alcohol (CYP3A4 metabolite) were quantified by LC/MS/MS. Addition of only DMSO being a solvent dissolving a drug to a reaction system was adopted as a control (100%). Remaining activity (%) was calculated. IC50 was calculated by reverse presumption by a logistic model using the concentration and an inhibition rate.

CYP2D6 = CYP2D6 (Homo sapiens (Human), UniProt P10635); assay: CYP inhibition test, CYP2D6; type: in vitro ADME; conditions: pooled human liver microsomes; dextromethorphan O-demethylation; given as 'five kinds'
Source text: as §1

CYP3A4 [3] = target: T1, CYP3A4 (Homo sapiens (Human), UniProt P08684); assay: CYP inhibition test, CYP3A4; type: in vitro ADME; conditions: pooled human liver microsomes; terfenadine hydroxylation; given as 'five kinds'
Source text: as §1

CYP3A4 [4] = target: T1, CYP3A4; assay: CYP3A4 (MDZ) MBI test; type: in vitro ADME; conditions: pooled human liver microsomes; midazolam 1-hydroxylation; preincubation 0 vs 30 min
Protocol: CYP3A4 (MDZ) MBI test is a test of investigating mechanism based inhibition (MBI) potential on CYP3A4 by the enhancement of inhibitory degree of a metabolic reaction caused by the compound of the present invention. CYP3A4 inhibition was evaluated using pooled human liver microsomes by 1-hydroxylation reaction of midazolam (MDZ) as a marker reaction.
The reaction conditions are as follows: substrate, 10 μmol/L MDZ; pre-reaction time, 0 or 30 minutes; substrate reaction time, 2 minutes; reaction temperature, 37° C.; protein content of pooled human liver microsomes, at pre-reaction time 0.5 mg/mL, at reaction time 0.05 mg/mL (at 10-fold dilution); concentrations of the compound of the present invention, at pre-reaction time 1, 5, 10, 20 μmol/L (four points).
Pooled human liver microsomes and a solution of the compound of the present invention in K-Pi buffer (pH 7.4) as a pre-reaction solution were added to a 96-well plate at the composition of the pre-reaction. A part of pre-reaction solution was transferred to another 96-well plate, and 1/10 diluted by K-Pi buffer containing a substrate. NADPH as a co-factor was added to initiate a reaction as a marker reaction (without pre-reaction). After a predetermined time of a reaction, methanol/acetonitrile=1/1 (V/V) solution was added to stop the reaction. In addition, NADPH was added to a remaining pre-reaction solution to initiate a pre-reaction (with pre-reaction). After a predetermined time of a pre-reaction, a part was transferred to another plate, and 1/10 diluted by K-Pi buffer containing a substrate to initiate a reaction as a marker reaction. After a predetermined time of a reaction, methanol/acetonitrile=1/1 (V/V) solution was added in order to stop the reaction. The plate on which each index reaction had been performed was centrifuged at 3000 rpm for 15 minutes, and thereafter 1-hydroxylated midazolam in the supernatant was quantified by LC/MS/MS.
The sample adding DMSO as a solvent to a reaction system instead of a solution dissolving the compound of the present invention was adopted as a control (100%). Remaining activity (%) was calculated at each concentration of the compound of the present invention compared to a control, and IC value was calculated by reverse-presumption by a logistic model using a concentration and an inhibition rate. IC at Preincubation 0 min/IC at Preincubation 30 min was defined as a value of Shifted IC, and a case that Shifted IC was 1.5 or more was regarded as Positive, and a case that Shifted IC was 1.0 or less was regarded as Negative.

Chain of CYP1A2 (P05177 whole entry): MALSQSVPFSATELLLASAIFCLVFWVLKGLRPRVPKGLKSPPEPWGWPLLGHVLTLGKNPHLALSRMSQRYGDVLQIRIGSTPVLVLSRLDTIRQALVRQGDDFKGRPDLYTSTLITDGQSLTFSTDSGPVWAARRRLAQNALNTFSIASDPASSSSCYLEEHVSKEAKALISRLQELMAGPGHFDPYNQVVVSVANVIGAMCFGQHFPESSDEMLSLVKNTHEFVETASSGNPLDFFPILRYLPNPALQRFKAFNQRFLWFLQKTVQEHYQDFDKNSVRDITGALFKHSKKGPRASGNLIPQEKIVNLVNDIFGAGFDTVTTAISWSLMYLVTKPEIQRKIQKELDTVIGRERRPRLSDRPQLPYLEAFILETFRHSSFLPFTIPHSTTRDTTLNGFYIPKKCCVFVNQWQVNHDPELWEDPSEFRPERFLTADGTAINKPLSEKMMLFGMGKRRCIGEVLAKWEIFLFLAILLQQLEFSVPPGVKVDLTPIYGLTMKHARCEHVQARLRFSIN
Chain of CYP2D6 (P10635 whole entry): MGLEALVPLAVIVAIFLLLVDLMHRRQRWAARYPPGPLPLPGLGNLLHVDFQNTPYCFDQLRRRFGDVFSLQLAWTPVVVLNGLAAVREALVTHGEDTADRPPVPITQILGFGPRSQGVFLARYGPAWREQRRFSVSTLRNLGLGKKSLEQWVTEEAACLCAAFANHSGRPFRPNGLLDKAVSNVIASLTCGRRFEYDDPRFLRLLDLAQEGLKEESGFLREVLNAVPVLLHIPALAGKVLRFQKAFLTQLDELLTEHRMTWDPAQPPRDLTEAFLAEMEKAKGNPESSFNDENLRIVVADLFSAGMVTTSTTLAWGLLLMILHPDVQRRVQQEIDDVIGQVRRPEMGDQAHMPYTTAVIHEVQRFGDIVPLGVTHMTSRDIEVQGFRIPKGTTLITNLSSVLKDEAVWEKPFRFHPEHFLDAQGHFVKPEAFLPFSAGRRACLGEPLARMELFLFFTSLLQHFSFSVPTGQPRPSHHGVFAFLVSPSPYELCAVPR
T1 sequence (P08684 whole entry): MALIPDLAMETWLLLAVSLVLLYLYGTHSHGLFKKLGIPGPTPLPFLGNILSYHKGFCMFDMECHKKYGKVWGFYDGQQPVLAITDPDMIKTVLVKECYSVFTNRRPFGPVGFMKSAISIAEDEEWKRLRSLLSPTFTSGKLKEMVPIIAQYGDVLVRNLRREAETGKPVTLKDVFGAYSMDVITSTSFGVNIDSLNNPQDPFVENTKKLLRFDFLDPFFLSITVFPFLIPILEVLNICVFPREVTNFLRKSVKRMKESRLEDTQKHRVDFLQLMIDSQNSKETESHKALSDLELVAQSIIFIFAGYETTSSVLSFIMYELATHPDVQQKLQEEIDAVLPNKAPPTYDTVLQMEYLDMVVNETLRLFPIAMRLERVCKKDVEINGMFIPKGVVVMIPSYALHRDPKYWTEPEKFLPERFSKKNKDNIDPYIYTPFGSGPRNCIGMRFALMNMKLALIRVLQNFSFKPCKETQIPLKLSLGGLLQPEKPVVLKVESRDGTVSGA

SMILES | Remaining rate [1] | solubility at 16 h [2] | IC50 (CYP1A2) | IC50 (CYP2D6) | IC50 (CYP3A4 [3]) | CYP3A4 (MDZ) MBI (Shifted IC judgement) (CYP3A4 [4])
CS(=O)(=O)CC(=O)Nc1c(CCC(F)(F)F)nn2c1C(=O)N[C@@]1(CCc3cc(OCC(F)(F)F)ccc31)C2 [Compound I-58] | 88.4% | > 50 µM | > 20 µM | > 20 µM | > 20 µM | Negative (a case that Shifted IC was 1.0 or less was regarded as Negative)
N#Cc1ccc(-c2nn3c(c2NC(=O)CC(F)(F)F)C(=O)N[C@@]2(CCc4cc(OCC(F)(F)F)ccc42)C3)nc1 [Compound I-14] | 103% | 41.8 µM (≈ 23.6 µg/mL) | > 20 µM | > 20 µM | > 20 µM | Negative (a case that Shifted IC was 1.0 or less was regarded as Negative)
Cc1ccc(-c2nn3c(c2NC(=O)CS(C)(=O)=O)C(=O)N[C@@]2(CCc4cc(OCC(F)(F)F)ccc42)C3)cc1 [Compound I-20] | 74.5% |  | > 20 µM | > 20 µM | > 20 µM | Negative (a case that Shifted IC was 1.0 or less was regarded as Negative)
CS(=O)(=O)CC(=O)Nc1c(CCC2CC2)nn2c1C(=O)N[C@@]1(CCc3cc(OCC(F)(F)F)ccc31)C2 [Compound I-46] | 78.1% | > 50 µM | > 20 µM | > 20 µM | > 20 µM | Negative (a case that Shifted IC was 1.0 or less was regarded as Negative)
Cc1ccc(-c2nn3c(c2NC(=O)CS(C)(=O)=O)C(=O)N[C@@]2(CCc4cc(OCC(F)(F)F)ccc42)C3)nc1 [Compound I-6] | 92.4% | > 50 µM | > 20 µM | > 20 µM | > 20 µM | Negative (a case that Shifted IC was 1.0 or less was regarded as Negative)
